Assay results as given in publication PMC7997382 (2020).

Assays:
Experiment in all cases: ESI-MS, negative mode
[1] = test system: ssDNA2 (DNA, single strand) GGTGGGCCTGGGGCATGGAC; conditions: ammonium acetate 15 mM, 10-fold molar excess over dsDNA, 24 h, ssDNA in equilibrium with dsDNA
[2] = test system: ssDNA1 (DNA, single strand) GTCCATGCCCCAGGCCCACC; conditions: ammonium acetate 15 mM, 10-fold molar excess over dsDNA, 24 h, ssDNA in equilibrium with dsDNA
[3] = test system: 20 mer double strand DNA (dsDNA) (DNA, duplex) GTCCATGCCCCAGGCCCACC/GGTGGGCCTGGGGCATGGAC; conditions: ammonium acetate 15 mM, 10-fold molar excess of compound, room temperature, 24 h, diluted 1:10, pH 6.8

| binding ([1]; no adduct peak) | binding ([2]; no adduct peak) | binding [3] | binding ([3]; covalent, each cisplatin lost both chloride ligands) | binding ([1]; partial binding) | binding ([2]; partial binding) | Structure (SMILES) |
| --- | --- | --- | --- | --- | --- | --- |
| no | no | yes | – | – | – | C=C.CC(=O)OC[C@H]1O[C@@H](N2[C]N(C)C=C2)[C@H](OC(C)=O)[C@@H](OC(C)=O)[C@@H]1OC(C)=O.Cc1ccc2ccc3ccc(C)nc3c2n1.[CH3-].[Pt+2] |
| – | – | – | yes | – | – | N.N.[Cl-].[Cl-].[Pt+2] |
| – | – | yes | – | weak | weak | CC(=O)OC[C@H]1O[C@@H](N2[C]N(C)C=C2)[C@H](OC(C)=O)[C@@H](OC(C)=O)[C@@H]1OC(C)=O.[CH3-].[CH3-].[CH3-].[Pt+4].c1cnc2c(c1)ccc1cccnc12 |
